Where two headings read alike, the source gives them in different places.
Legend:
fuLAP1 = fuLAP1 (Aspergillus fumigatus, UniProt Q5VJG6); format: biochemical; settings: for effect of divalent cation on fuLAP1 activity: Leu-AMC substrate
Protocol: (§1) Inhibitors and metallic cations were pre-incubated with the enzymes for 15 min at 37° C. Then, Leu-AMC at a 5 mM final concentration was added. After further incubation for 60 min, enzyme activity was measured as described above. The inhibitors and their concentrations tested purified LAPs were: 500 μM amastatin (Bachem), 40 μM benzamidine (Sigma), 500 μM bestatin (Bachem), 5 mM/l mM EDTA (Sigma). 100 μM E-64 (L-trans-epoxysuccinyl-leu-4-guanidinobutylamide) (Bachem), 100 μM leupeptin (Sigma), 5 mM/1 mM ortho-phenanthroline (Sigma), 500 μM p-chloromercuribenzoic acid (Sigma), 100 μM pepstatin A (Sigma), 40 μM PMSF (Sigma), 20 μM TLCK (Roche Diagnostics), and 20 μM TPCK (Roche Diagnostics).

ruLAP1 = ruLAP1 (Trichophyton rubrum, UniProt Q5QHG5); format: biochemical
Protocol: as §1

ruLAP2 = ruLAP2 (Trichophyton rubrum, UniProt Q5QHG6); format: biochemical
Protocol: as §1

[1] = target: T1, pkLAP (microsomal LAP from porcine kidney) (Sus scrofa, UniProt P15145); test: Effect of chemical reagents (inhibitors, metallic cations) on LAP activity with Leu-AMC; format: biochemical
T1 construct: purchased Sigma; host or cells: porcine kidney
T1 sequence (P15145 1-963): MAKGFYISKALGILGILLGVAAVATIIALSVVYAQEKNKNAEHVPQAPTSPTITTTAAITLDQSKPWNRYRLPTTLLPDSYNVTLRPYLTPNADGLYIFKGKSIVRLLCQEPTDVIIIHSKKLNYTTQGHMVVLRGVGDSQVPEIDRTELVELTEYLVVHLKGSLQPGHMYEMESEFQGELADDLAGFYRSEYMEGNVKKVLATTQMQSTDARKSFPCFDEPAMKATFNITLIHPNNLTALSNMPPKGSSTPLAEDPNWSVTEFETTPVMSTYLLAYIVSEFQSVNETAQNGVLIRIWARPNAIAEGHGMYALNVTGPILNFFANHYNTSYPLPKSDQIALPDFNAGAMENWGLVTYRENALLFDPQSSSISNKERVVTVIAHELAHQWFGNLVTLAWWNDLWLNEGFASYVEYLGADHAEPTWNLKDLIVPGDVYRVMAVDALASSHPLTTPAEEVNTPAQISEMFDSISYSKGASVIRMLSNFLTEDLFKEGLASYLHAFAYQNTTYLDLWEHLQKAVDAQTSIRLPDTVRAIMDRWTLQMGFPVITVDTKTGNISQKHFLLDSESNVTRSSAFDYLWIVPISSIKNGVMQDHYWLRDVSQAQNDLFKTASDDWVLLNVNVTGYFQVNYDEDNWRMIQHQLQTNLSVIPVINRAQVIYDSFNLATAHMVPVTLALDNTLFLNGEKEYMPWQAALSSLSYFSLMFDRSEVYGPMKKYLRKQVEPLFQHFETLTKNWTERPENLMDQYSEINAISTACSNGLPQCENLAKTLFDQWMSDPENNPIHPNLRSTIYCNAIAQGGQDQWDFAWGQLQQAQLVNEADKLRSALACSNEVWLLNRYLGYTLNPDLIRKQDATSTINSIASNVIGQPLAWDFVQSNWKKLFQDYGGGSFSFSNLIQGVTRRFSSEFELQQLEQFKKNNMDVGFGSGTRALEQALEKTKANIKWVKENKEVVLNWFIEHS
Protocol: as §1

fuLAP2 = format: biochemical, Aspergillus fumigatus; settings: for fuLAP2 hydrolytic activity, percentage of control without inhibitor / fuLAP2 hydrolytic activity, percentage of control without any cation: Leu-MCA substrate; for effect of divalent cation on fuLAP2 activity: Leu-AMC substrate
Protocol: as §1

[2] = system: all the LAPs tested (ruLAP1, ruLAP2, fuLAP1, fuLAP2, pkLAP); format: biochemical; settings: Leu-AMC 5 mM; amastatin 500 μM; ortho-phenantroline 1 and 5 mM; others as
Protocol: as §1

[3] = Leu-AMC 5 mM, inhibitor concentrations, pepstatin 0.1 mM
[4] = Leu-AMC 5 mM, inhibitor concentrations
[5] = inhibitor 100 μM, Leu-MCA substrate
[6] = cation salt 0.5 mM, Leu-MCA substrate
[7] = cation salt 1 mM, Leu-MCA substrate

Sequence of ruLAP2 (Q5QHG6 22-495): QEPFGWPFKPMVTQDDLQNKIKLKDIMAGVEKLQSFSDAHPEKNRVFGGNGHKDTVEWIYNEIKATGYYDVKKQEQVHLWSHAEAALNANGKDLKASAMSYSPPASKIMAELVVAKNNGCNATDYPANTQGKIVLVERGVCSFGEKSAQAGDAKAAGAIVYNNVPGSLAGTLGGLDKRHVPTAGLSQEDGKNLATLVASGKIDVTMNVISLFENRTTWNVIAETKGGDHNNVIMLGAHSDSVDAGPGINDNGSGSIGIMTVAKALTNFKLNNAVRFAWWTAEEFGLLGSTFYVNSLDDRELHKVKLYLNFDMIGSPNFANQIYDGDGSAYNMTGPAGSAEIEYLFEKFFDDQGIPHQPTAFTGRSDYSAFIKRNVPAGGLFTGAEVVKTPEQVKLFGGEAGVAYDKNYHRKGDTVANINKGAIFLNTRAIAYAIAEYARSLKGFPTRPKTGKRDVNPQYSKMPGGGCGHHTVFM
Sequence of ruLAP1 (Q5QHG5 19-373): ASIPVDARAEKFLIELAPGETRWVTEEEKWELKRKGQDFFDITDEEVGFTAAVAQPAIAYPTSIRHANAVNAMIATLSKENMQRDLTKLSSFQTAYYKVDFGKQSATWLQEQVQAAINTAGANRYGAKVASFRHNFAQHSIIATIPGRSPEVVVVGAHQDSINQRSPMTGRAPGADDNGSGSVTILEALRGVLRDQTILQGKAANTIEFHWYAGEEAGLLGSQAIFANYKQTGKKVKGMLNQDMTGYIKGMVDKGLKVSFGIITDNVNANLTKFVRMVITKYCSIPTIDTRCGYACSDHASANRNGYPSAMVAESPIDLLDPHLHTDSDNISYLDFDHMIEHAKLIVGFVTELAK
Sequence of fuLAP1 (Q5VJG6 15-388, looked up, natural form): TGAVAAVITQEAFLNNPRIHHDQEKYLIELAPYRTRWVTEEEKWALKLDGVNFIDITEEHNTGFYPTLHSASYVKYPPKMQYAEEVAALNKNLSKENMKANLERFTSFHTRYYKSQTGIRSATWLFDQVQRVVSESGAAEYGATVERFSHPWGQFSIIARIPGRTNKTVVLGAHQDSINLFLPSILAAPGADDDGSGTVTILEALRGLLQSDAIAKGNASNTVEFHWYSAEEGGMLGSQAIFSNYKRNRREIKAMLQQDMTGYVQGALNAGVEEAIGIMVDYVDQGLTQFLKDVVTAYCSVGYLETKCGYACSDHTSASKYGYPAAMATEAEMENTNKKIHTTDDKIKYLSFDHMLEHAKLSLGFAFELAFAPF

SMILES: CC(C)C[C@H](NC(=O)[C@@H](O)[C@H](N)Cc1ccccc1)C(=O)O [bestatin]
- effect of inhibitor on fuLAP1 activity (fuLAP1; [3]): inhibited
- effect of inhibitor on ruLAP1 activity (ruLAP1; [3]): inhibited
- effect of inhibitor on ruLAP2 activity (ruLAP2; [4]): only partial inhibitory effect
- effect of inhibitor on pkLAP activity [1, 4]: inhibited
- effect of inhibitor on fuLAP2 activity (fuLAP2; [4]): only partial inhibitory effect
- fuLAP2 hydrolytic activity, percentage of control without inhibitor (fuLAP2; inhibitor 500 μM): 88%

SMILES: CC(=O)N[C@@H](CC(C)C)C(=O)N[C@@H](CC(C)C)C(=O)N[C@H](C=O)CCCNC(=N)N [Leupeptin, leupeptin]
- effect of inhibitor on all the LAPs tested [2]: no clear inhibitory effects
- fuLAP2 hydrolytic activity, percentage of control without inhibitor (fuLAP2; inhibitor 100 μM): 61%

SMILES: CC(C)C[C@H](NC(=O)[C@H]1O[C@@H]1C(=O)O)C(=O)NCCCCN=C(N)N [E 64]
- fuLAP1 hydrolytic activity, percentage of control without inhibitor (fuLAP1; [5]): 190%
- ruLAP1 hydrolytic activity, percentage of control without inhibitor (ruLAP1; [5]): 103%
- ruLAP2 hydrolytic activity, percentage of control without inhibitor (ruLAP2; [5]): 34%
- pkLAP hydrolytic activity, percentage of control without inhibitor [1, 5]: 93%
- fuLAP2 hydrolytic activity, percentage of control without inhibitor (fuLAP2; inhibitor 100 μM): 71%

SMILES: CC(C)C[C@@H](N)[C@H](O)C(=O)N[C@H](C(=O)N[C@H](C(=O)N[C@@H](CC(=O)O)C(=O)O)C(C)C)C(C)C [amastatin]
- effect of inhibitor on all the LAPs tested [2]: strongly or totally inhibited
- fuLAP2 hydrolytic activity, percentage of control without inhibitor (fuLAP2; inhibitor 500 μM): 0%

SMILES: [Ca+2] [Ca^++]
- effect of divalent cation on fuLAP1 activity (fuLAP1): inhibited
- effect of divalent cation on fuLAP2 activity (fuLAP2): activated

SMILES: [Ca+2].[Cl-].[Cl-] [CaCl2]
- fuLAP1 hydrolytic activity, percentage of control without any cation (fuLAP1; [6]): 54.9%
- fuLAP1 hydrolytic activity, percentage of control without any cation (fuLAP1; [7]): 43.3%
- ruLAP1 hydrolytic activity, percentage of control without any cation (ruLAP1; [6]): 151.7%
- ruLAP1 hydrolytic activity, percentage of control without any cation (ruLAP1; [7]): 175.6%
- ruLAP2 hydrolytic activity, percentage of control without any cation (ruLAP2; [6]): 126.6%
- ruLAP2 hydrolytic activity, percentage of control without any cation (ruLAP2; [7]): 141.9%
- pkLAP hydrolytic activity, percentage of control without any cation [1, 6]: 177.4%
- pkLAP hydrolytic activity, percentage of control without any cation [1, 7]: 161.8%
- fuLAP2 hydrolytic activity, percentage of control without any cation (fuLAP2; cation salt 0.5 mM): 110.0%
- fuLAP2 hydrolytic activity, percentage of control without any cation (fuLAP2; cation salt 1 mM): 165.4%

SMILES: N=C(N)c1ccccc1 [benzamidine]
- effect of inhibitor on all the LAPs tested [2]: no clear inhibitory effects
- fuLAP2 hydrolytic activity, percentage of control without inhibitor (fuLAP2; inhibitor 40 μM): 91%

SMILES: [Cl][Mn][Cl] [Mn^++, MnCl2]
- effect of divalent cation on fuLAP1 activity (fuLAP1): inhibited
- fuLAP1 hydrolytic activity, percentage of control without any cation (fuLAP1; [6]): 25.9%
- fuLAP1 hydrolytic activity, percentage of control without any cation (fuLAP1; [7]): 28.4%
- ruLAP1 hydrolytic activity, percentage of control without any cation (ruLAP1; [6]): 120.7%
- ruLAP1 hydrolytic activity, percentage of control without any cation (ruLAP1; [7]): 105.2%
- ruLAP2 hydrolytic activity, percentage of control without any cation (ruLAP2; [6]): 77.5%
- ruLAP2 hydrolytic activity, percentage of control without any cation (ruLAP2; [7]): 86.8%
- pkLAP hydrolytic activity, percentage of control without any cation [1, 6]: 157.6%
- pkLAP hydrolytic activity, percentage of control without any cation [1, 7]: 165.8%
- effect of divalent cation on fuLAP2 activity (fuLAP2): activated
- fuLAP2 hydrolytic activity, percentage of control without any cation (fuLAP2; cation salt 0.5 mM): 84.3%
- fuLAP2 hydrolytic activity, percentage of control without any cation (fuLAP2; cation salt 1 mM): 140.2%
